viability, hemolysis and inhibition data for 39 compounds are collected here from ChEMBL document CHEMBL3045416, “Synthesis and biological evaluation of new curcumin derivatives as antioxidant and antitumor agents” (Med Chem Res, 2013).

Data set [1] has as its system Vero. In words: Cytotoxicity against Chlorocebus aethiops (African green monkey) Vero cells assessed as cell viability at 20 ug/ml by trypan blue assay. Conditions: Chlorocebus sabaeus, read-out: Activity. In kind it is functional.
Data set [2] is described as follows: Induction of Homo sapiens (human) RBC haemolysis at 2 ug/ml by spectrophotometric anlaysis. In kind it is cell-based, Erythrocyte. The following applies: red blood cells, read-out: Activity.
In data set [3] the test system is HepG2. In words: Cytotoxicity against Homo sapiens (human) HepG2 cells assessed as cell viability at 20 ug/ml by trypan blue assay. In kind it is functional. The following applies: read-out: Activity.
Data set [4] relates to WI-38. In words: Cytotoxicity against Homo sapiens (human) WI38 cells assessed as cell viability at 20 ug/ml by trypan blue assay. In kind it is functional. The following applies: read-out: Activity.
A short description of data set [5]: Antioxidant activity assessed as inhibition of ABTS radical production at 1 mg/ml. The data set is classed as functional.
The test system of data set [6] is MCF7. In words: Cytotoxicity against Homo sapiens (human) MCF7 cells assessed as cell viability at 20 ug/ml by trypan blue assay. The following applies: read-out: Activity. The data set is classed as functional.
Data set [7] can be described thus: Antihaemolysis activity in Homo sapiens (human) RBC assessed as inhibition of ABTS-induced haemolysis at 20 ug/ml incubated for 30 min prior to ABTS-challenge by spectrophotometric analysis. The data set is classed as functional. The following applies: Erythrocyte.
A short description of data set [8]: Antioxidant activity assessed as inhibition of ABTS radical production at 2 mM. In kind it is functional.

As for `CC(C)(C(=O)/C=C/c1ccc(O)cc1)C(=O)/C=C/c1ccc(O)cc1`, the viability at 20 µg/mL in data set [1] turned out to be 82%; in data set [3] it was 57%; in data set [4] it was 88%; in data set [6], 64%. Besides, in data set [2], the hemolysis at 2 ug/ml is 100%. The inhibition (in general, the change of the read-out against control, counted positive when it falls) in data set [5] is 28.7%.

Regarding `COc1ccc(/C=C2\CCCCC3C2=NN(c2ccc(Br)cc2)C3c2ccc(OC)cc2)cc1` (configuration not stated), in data set [2], the hemolysis at 2 ug/ml turned out to be 100%.

With `N#CC1=C(N)OC2=C(CCC/C2=C\c2ccc(O)cc2)C1c1ccc(O)cc1` (configuration not stated), the viability at 20 µg/mL amounted to 83% in data set [1], 78% in data set [3], 79% in data set [4] and 82% in data set [6]. In addition, in data set [2], the hemolysis at 2 ug/ml came to 100%. In data set [5], the inhibition was found to be 16.7%.

For `O=c1[nH]cc(F)c(=O)[nH]1` [FLUOROURACIL], the viability at 20 µg/mL in data set [1], in data set [3], in data set [4] and in data set [6] was 0% each time.

As to `COc1ccc(/C=C/C(=O)C(C)(C)C(=O)/C=C/c2ccc(OC)c(OC)c2)cc1OC`, the viability at 20 µg/mL in data set [1] was 89%; in data set [3], 78%; in data set [4] it was 75%; in data set [6], 87%. For the same compound, in data set [2], the hemolysis at 2 ug/ml stood at 100%. The inhibition in data set [5] came to 12.6%.

Take `COc1cc(/C=C2\CCCC3=C2OC(N)=C(C#N)C3c2ccc(O)c(OC)c2)ccc1O` (configuration not stated): the viability at 20 µg/mL in data set [1] amounted to 82%; in data set [3], 81%; in data set [4] it was 84%; in data set [6], 79%. For the same compound, the hemolysis at 2 ug/ml in data set [2] was 100%. Also, the inhibition in data set [5] is 57.8%.

Turning to `COc1ccc(OC)c(/C=C2\CCCCC3C2=NN(c2ccc(Br)cc2)C3c2cc(OC)ccc2OC)c1` (configuration not stated), the hemolysis at 2 ug/ml in data set [2] came out at 100%.

Regarding `CCOc1ccc(/C=C/C(=O)C(CC)(CC)C(=O)/C=C/c2ccc(OCC)c(OC)c2)cc1OC`, the viability at 20 µg/mL in data set [1] is 88%; in data set [3], 78%; in data set [4], 82%; in data set [6], 94%. For the same compound, the inhibition in data set [5] turned out to be 26.4%.

With `O=C1/C(=C/c2ccc(O)cc2)CCC/C1=C\c1ccc(O)cc1`, the viability at 20 µg/mL in data set [1] is 84%; in data set [3], 88%; in data set [4], 77%; in data set [6], 74%. In addition, the hemolysis at 2 ug/ml in data set [2] is 100%. For the same compound, in data set [5], the inhibition was determined as 9.49%.

`CC(C)(C(=O)/C=C/c1ccc(Cl)cc1)C(=O)/C=C/c1ccc(Cl)cc1`: in data set [2], the hemolysis at 2 ug/ml stood at 100%. In data set [5], the inhibition is 2.32%.

As for `COc1ccc(/C=C2\CCCC/C(=C\c3ccc(OC)c(OC)c3)C2=O)cc1OC`, in data set [2], the hemolysis at 2 ug/ml was 100%. Also, the inhibition in data set [5] stood at 0.77%.

Turning to `Brc1ccc(N2N=C3/C(=C/c4ccccc4)CCCC3C2c2ccccc2)cc1` (configuration not stated), in data set [2], the hemolysis at 2 ug/ml is 100%. The inhibition in data set [5] is 1.74%.

Turning to `COc1ccc(OC)c(/C=C2\CCC/C(=C\c3cc(OC)ccc3OC)C2=O)c1`, the hemolysis at 2 ug/ml in data set [2] came to 100%. Moreover, the inhibition in data set [5] was found to be 1.16%.

For the compound `COc1ccc(/C=C/C(=O)C(C)(C)C(=O)/C=C/c2ccc(OC)cc2)cc1`, the hemolysis at 2 ug/ml in data set [2] was found to be 100%. Also, the inhibition in data set [5] is 7.75%.

As to `COc1ccc(/C=C2\CCCC3C2=NN(c2ccc(Br)cc2)C3c2ccc(OC)cc2)cc1` (configuration not stated), the hemolysis at 2 ug/ml in data set [2] was 100%. Further, the inhibition in data set [5] is 5.03%.

Regarding `COc1ccc(OC)c(/C=C2\CCCC3C2=NN(c2ccc(Br)cc2)C3c2cc(OC)ccc2OC)c1` (configuration not stated), in data set [2], the hemolysis at 2 ug/ml was found to be 100%. The inhibition in data set [5] was 0.77%.

With `N#CC1=C(N)OC2=C(CCC/C2=C\c2ccccc2)C1c1ccccc1` (configuration not stated), the inhibition in data set [5] worked out at 0.19%.

Take `COc1ccc(/C=C2\CCCCC3C2=NN(c2ccc(Br)cc2)C3c2ccc(OC)c(OC)c2)cc1OC` (configuration not stated): the hemolysis at 2 ug/ml in data set [2] worked out at 100%.

Take `COc1ccc(OC)c(/C=C/C(=O)C(C)(C)C(=O)/C=C/c2cc(OC)ccc2OC)c1`: the viability at 20 µg/mL was 74% in data set [1], 84% in data set [3], 80% in data set [4] and 79% in data set [6]. In data set [2], the hemolysis at 2 ug/ml was found to be 100%. Besides, the inhibition in data set [5] came out at 3.68%.

With `COc1ccc(/C=C2\CCCC3=C2OC(N)=C(C#N)C3c2ccc(OC)c(OC)c2)cc1OC` (configuration not stated), the viability at 20 µg/mL came out at 65% in data set [1], 19% in data set [3], 12% in data set [4] and 21% in data set [6]. For the same compound, in data set [2], the hemolysis at 2 ug/ml is 100%. Besides, in data set [5], the inhibition is 16.9%.

On to `COc1ccc(/C=C2\CCCC3=C2OC(N)=C(C#N)C3c2ccc(OC)cc2)cc1` (configuration not stated), for which, in data set [5], the inhibition is 0.38%.

Consider `COc1cc(/C=C2\CCC/C(=C\c3ccc(O)c(OC)c3)C2=O)ccc1O` [CYCLOVALONE], for which the viability at 20 µg/mL is 69% in data set [1], 28% in data set [3], 58% in data set [4] and 32% in data set [6]. For the same compound, the inhibition in data set [5] turned out to be 74.2%.

For the compound `COc1ccc(OC)c(/C=C2\CCCC3C2=NNC3c2cc(OC)ccc2OC)c1` (configuration not stated), the viability at 20 µg/mL in data set [1] stood at 67%; in data set [3] it was 78%; in data set [4] it was 100%; in data set [6], 82%. In addition, in data set [2], the hemolysis at 2 ug/ml worked out at 100%. The inhibition in data set [5] stood at 25.6%.

In the case of `Clc1ccc(/C=C2\CCCC3C2=NN(c2ccc(Br)cc2)C3c2ccc(Cl)cc2)cc1` (configuration not stated), the hemolysis at 2 ug/ml in data set [2] amounted to 100%. The inhibition in data set [5] is 2.9%.

As for `O=C1/C(=C/c2ccc(Cl)cc2)CCC/C1=C\c1ccc(Cl)cc1`, in data set [2], the hemolysis at 2 ug/ml is 100%. For the same compound, the inhibition in data set [5] is 0.58%.

As for `O=C1/C(=C/c2ccccc2)CCC/C1=C\c1ccccc1`, in data set [5], the inhibition is 1.93%.

As to `COc1cc(/C=C/C(=O)CC(=O)/C=C/c2ccc(O)c(OC)c2)ccc1O` [CURCUMIN], the viability at 20 µg/mL in data set [1] was determined as 24%; in data set [3], 18%; in data set [4], 51%; in data set [6], 19%. Besides, the inhibition in data set [5] came out at 87.6%.

As for `COc1ccc(/C=C2\CCCC/C(=C\c3ccc(OC)cc3)C2=O)cc1`, in data set [2], the hemolysis at 2 ug/ml is 100%. Also, in data set [5], the inhibition turned out to be 1.74%.

Consider `COc1ccc(/C=C2\CCC/C(=C\c3ccc(OC)c(OC)c3)C2=O)cc1OC`, for which the hemolysis at 2 ug/ml in data set [2] worked out at 100%. For the same compound, the inhibition in data set [5] was determined as 0%.

Take `COc1ccc(/C=C2\CCCC3C2=NN(c2ccc(Br)cc2)C3c2ccc(OC)c(OC)c2)cc1OC` (configuration not stated): the hemolysis at 2 ug/ml in data set [2] was found to be 100%. Further, the inhibition in data set [5] is 0.19%.

`O=C1O[C@H]([C@@H](O)CO)C(O)=C1O` [ASCORBIC ACID]: the inhibition at 20 µg/mL in data set [7] worked out at 17.6%. The inhibition in data set [8] amounted to 80.8%.

For `Oc1ccc(/C=C2\CCCC3C2=NNC3c2ccc(O)cc2)cc1` (configuration not stated), the viability at 20 µg/mL in data set [1] was determined as 76%; in data set [3], 89%; in data set [4], 88%; in data set [6], 75%. For the same compound, the inhibition in data set [5] was found to be 54.5%.

Turning to `COc1cc(/C=C2\CCCC3C2=NNC3c2ccc(O)c(OC)c2)ccc1O` (configuration not stated), the viability at 20 µg/mL turned out to be 12% in data set [1], 21% in data set [3], 65% in data set [4] and 19% in data set [6]. Besides, the inhibition in data set [5] was 76.7%.

Take `COc1ccc(/C=C2\CCC/C(=C\c3ccc(OC)cc3)C2=O)cc1`: the hemolysis at 2 ug/ml in data set [2] was 100%. Also, the inhibition in data set [5] is 1.35%.

For `N#CC1=C(N)OC2=C(CCC/C2=C\c2ccc(Cl)cc2)C1c1ccc(Cl)cc1` (configuration not stated), in data set [5], the inhibition stood at 1.55%.

On to `COc1ccc(OC)c(/C=C2\CCCC3=C2OC(N)=C(C#N)C3c2cc(OC)ccc2OC)c1` (configuration not stated), for which the inhibition in data set [5] was 0.38%.

In the case of `COc1cc(/C=C/C(=O)C(C)(C)C(=O)/C=C/c2ccc(O)c(OC)c2)ccc1O`, the viability at 20 µg/mL in data set [1] came out at 82%; in data set [3], 47%; in data set [4], 78%; in data set [6], 55%. Moreover, in data set [5], the inhibition was found to be 52.9%.

In the case of `COc1ccc(OC)c(/C=C2\CCCC/C(=C\c3cc(OC)ccc3OC)C2=O)c1`, the hemolysis at 2 ug/ml in data set [2] came to 100%. In addition, the inhibition in data set [5] amounted to 5.03%.

Regarding `CC(C)(C(=O)/C=C/c1ccccc1)C(=O)/C=C/c1ccccc1`, the hemolysis at 2 ug/ml in data set [2] came to 100%. The inhibition in data set [5] was 4.84%.
